From US12084434B2 (Scorpion Therapeutics, Inc., priority 2021, dated 2024)

What was measured:
[1] = target: T1, PI3Kα H1047R protein (p110-α H1047R complexed with truncated p85-α) (Homo sapiens, UniProt P42336, H1047R); experiment: Surface Plasmon Resonance (SPR) binding, wortmannin-blocked protein; settings: Biacore 8K, ATP site blocked with 1 μM wortmannin, 25° C.
T1 construct: The protein contained a full-length p110-α subunit harboring the H1047R mutation
Description: Surface Plasmon Resonance (SPR)
SPR experiments were performed on a Biacore 8K instrument. A biotinylated recombinant PI3Kα H1047R protein was used in this study. The protein contained a full-length p110-α subunit harboring the H1047R mutation with an N-terminal AviTag, complexed with a truncated p85-α subunit (amino acid residues 322-694). The protein was first incubated with 1 μM wortmannin for 30 min at RT to covalently block the ATP binding site, then immobilized onto a streptavidin sensor chip by flowing the protein through the sensor chip at typically 20 μg/mL concentration and 2 μL/min flow rate for 1200 seconds. Compound binding affinities were measured in the multi-cycle kinetics mode, at 90 μL/min flow rate with 90 seconds association time and 240 seconds dissociation time. The running buffer contained 50 mM Tris, pH 7.5, 150 mM NaCl, 0.01% Brij35, 1 mM DTT, 1 mM MgCl2, 0.05% Tween-20 and 2% DMSO. Temperature was maintained at 25° C. during experiments.

[2] = tested on: T47D pAKT (S473), PI3Kα H1047R mutation present; experiment: HTRF pAKT-T47D; settings: Homo sapiens, T47D, 1 h, read-out: T47D pAKT IC50 (nM), T47D.1 cells, pAKT (S473) HTRF, 1 hour;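 further: assay medium was RPMI with 10% FBS and 0.2 units/ml bovine insulin, without phenol red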
Description: Homogenous Time-Resolved Fluorescence (HTRF)—pAKT-T47D
Compounds were assayed using homogeneous time-resolved fluorescence (HTRF).
Gibco RPMI 1640 Medium, no phenol red; Gibco RPMI 1640 Medium; Gibco Trypsin-EDTA (0.5%), no phenol red; Gibco DPBS; Trypan blue solution 0.4% (Corning); Avantor Seradigm Premium Grade Fetal Bovine Serum (FBS); Greiner 784080-384 well TC treated white plates; pAKT (Ser473) HTRF; Gibco Insulin, human recombinant, zinc solution; Gibco Recovery Cell Culture Freezing Medium; Countess II FL Automated Cell Counter (ThermoFisher); Countess II Slides (ThermoFisher); Microscope; and PHERAstar FSX Microplate Reader (BMG LABTECH, Inc.).
The scinamic cell line ID was T47D.1, the HTRF detection was pAKT (S473), a PI3Kα H1047R mutation was present, the seeding density was 5000, the timepoint was 1 hour, and the medium used was RPMI+10% FBS (no phenol red)+0.2 units/ml bovine insulin.
• The cell density was not permitted to reach 100% confluence. The cells were split 1:5 when they reached ˜80% confluence. • Cells were split twice a week (Mon and Fri). • Cells over passage 18 were not used (˜2 months of maintenance). • Antibiotics were not used for tissue culture maintenance or assays. […] Protocol Day1
The procedure was as follows: • 1. Prepared ARP: • a. Stamped 12.5 nL from 10 μmM source plate to destination plate using Echo. Sealed plate immediately and froze at −20° C. if it was not used on the same day. • b. If a frozen ARP was used, the plate was thawed and spun at 1000 rpm×1 min. • 2. Preparation of cells (adherent): • a. Aspirated media from cells. Washed cells with sterile 1XPBS. Aspirated PBS and added appropriate amount of Trypsin. • b. Once cells were fully trypsinized, added appropriate media to resuspend cells. Transferred cells to a 15 mL or 50 mL conical tube. • c. Counted cells on the Countess II Cell Counter. • 3. Plating of cells: • a. Prepared cells at appropriate plating density. Dispensed 12 μL of diluted cells per well of a Greiner 784080-384 well TC treated white plate using a Multidrop Combi to columns 1-23. Added 12 uL of appropriate phenol free media only to column 24. • b. Placed plates in 37° C. tissue culture incubator for appropriate treatment time (refer to “Assay” table). • 4. Prepared HTRF Lysis Buffer • a. Calculate the amount of HTRF lysis buffer master mix needed to perform the desired experiments plus any extra dead volume required for dispensing (4 μL required per well). […] Add 4 uL Lysis buffer master mix to all wells with sample or DMSO. Centrifuge the plates for 1 minute at 1000 rpm. • c. Incubate at room temperature for 30 minutes. • 5. Prepared HTRF Antibody • a.

T1 sequence (P42336 whole entry H1047R, the tested form may be a part): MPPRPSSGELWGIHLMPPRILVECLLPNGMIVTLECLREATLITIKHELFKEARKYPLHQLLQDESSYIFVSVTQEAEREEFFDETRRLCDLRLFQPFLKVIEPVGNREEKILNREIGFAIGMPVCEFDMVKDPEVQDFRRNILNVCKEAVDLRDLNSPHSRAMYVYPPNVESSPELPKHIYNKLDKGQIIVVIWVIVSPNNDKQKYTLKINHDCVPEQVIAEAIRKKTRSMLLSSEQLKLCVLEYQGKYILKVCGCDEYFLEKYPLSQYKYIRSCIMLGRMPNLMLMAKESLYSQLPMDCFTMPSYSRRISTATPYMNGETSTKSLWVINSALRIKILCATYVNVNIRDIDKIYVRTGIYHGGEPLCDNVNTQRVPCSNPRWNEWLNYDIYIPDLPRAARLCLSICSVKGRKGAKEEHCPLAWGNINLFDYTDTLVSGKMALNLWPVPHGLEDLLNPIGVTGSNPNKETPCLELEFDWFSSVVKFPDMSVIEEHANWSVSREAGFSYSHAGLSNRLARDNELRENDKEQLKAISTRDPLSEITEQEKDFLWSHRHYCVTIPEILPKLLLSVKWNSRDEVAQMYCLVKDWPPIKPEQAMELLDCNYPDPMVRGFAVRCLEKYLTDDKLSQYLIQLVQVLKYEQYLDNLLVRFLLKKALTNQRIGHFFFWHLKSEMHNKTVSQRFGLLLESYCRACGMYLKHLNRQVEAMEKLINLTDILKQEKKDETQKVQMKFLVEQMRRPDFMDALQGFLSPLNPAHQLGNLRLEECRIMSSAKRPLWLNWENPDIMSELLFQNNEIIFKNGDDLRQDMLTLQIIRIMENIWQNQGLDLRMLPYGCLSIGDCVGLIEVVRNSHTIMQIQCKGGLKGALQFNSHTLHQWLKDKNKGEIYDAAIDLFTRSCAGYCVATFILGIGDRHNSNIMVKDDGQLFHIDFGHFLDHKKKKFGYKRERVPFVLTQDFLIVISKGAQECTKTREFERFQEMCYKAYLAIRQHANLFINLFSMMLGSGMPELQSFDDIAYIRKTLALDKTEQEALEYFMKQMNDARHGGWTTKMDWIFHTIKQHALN
T1 sequence (P27986 322-694 partner limits assumed): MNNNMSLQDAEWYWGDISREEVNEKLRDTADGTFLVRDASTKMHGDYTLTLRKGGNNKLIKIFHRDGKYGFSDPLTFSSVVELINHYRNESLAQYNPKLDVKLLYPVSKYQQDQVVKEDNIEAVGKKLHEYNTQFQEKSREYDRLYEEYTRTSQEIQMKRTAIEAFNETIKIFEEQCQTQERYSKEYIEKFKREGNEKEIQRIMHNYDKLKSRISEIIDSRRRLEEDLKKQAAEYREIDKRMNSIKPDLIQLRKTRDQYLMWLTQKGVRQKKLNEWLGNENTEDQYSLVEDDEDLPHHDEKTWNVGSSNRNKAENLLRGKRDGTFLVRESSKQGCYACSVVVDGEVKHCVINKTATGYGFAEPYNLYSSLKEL

Row | Structure (SMILES) | Kd [1] [nM] | IC50 [2] [nM]
1 | Cc1c([C@@H](NC(=O)Nc2cncc(C(=O)N3CCNCC3)c2)C(C)C)oc2ccc(F)cc12 [Compound 61, (S)-1-(1-(5-fluoro-3-methylbenzofuran-2-yl)-2-methylpropyl)-3-(5-(piperazine-1-carbonyl)pyridin-3-yl)urea] | 100 to 250 | 1000 to 5000
2 | COC(=O)N1CCC(NC(=O)NC(c2oc3ccc(F)cc3c2C)C(C)C)CC1 (single isomer, unassigned) [Compound 36] | ≥ 500 | > 5000
3 | Cc1c([C@H](C)NC(=O)Nc2cccc(C(N)=O)c2)oc2ccc(F)cc12 [Compound 3, (S)-3-(3-(1-(5-fluoro-3-methylbenzofuran-2-yl)ethyl)ureido) benzamide] | ≥ 500 | > 5000
4 | Cc1c([C@@H](NC(=O)Nc2cccnc2)C(C)C)oc2ccc(F)cc12 [Compound 1, (S)-1-(1-(5-fluoro-3-methylbenzofuran-2-yl)-2-methylpropyl)-3-(pyridin-3-yl)urea] | 250 to 500 | 1000 to 5000
5 | CCS(=O)(=O)c1ccc(NC(=O)N[C@H](C)c2oc3ccc(F)cc3c2C)cc1 [Compound 13, (R)-1-(4-(ethylsulfonyl)phenyl)-3-(1-(5-fluoro-3-methylbenzofuran-2-yl)ethyl)urea] | ≥ 500 | > 5000
6 | Cc1c(C(NC(=O)Nc2cccc(C(N)=O)c2)C(C)C)oc2ccc(F)c(F)c12 (racemic) [Compound 54, 3-(3-(1-(4,5-difluoro-3-methylbenzofuran-2-yl)-2-methylpropyl)ureido)benzamide] | 100 to 250 | > 5000
7 | Cc1c([C@@H](NC(=O)Nc2cncc(C#N)c2)C(C)C)oc2ccc(F)cc12 [Compound 35, (S)-1-(5-cyanopyridin-3-yl)-3-(1-(5-fluoro-3-methylbenzofuran-2-yl)-2-methylpropyl)urea] | 250 to 500 | 1000 to 5000
8 | Cc1c([C@@H](NC(=O)N[C@H]2CCCN(S(C)(=O)=O)C2)C(C)C)oc2ccc(F)cc12 (single isomer, unassigned) [Compound 20] | 100 to 250 | 1000 to 5000
9 | Cc1c([C@@H](NC(=O)Nc2ccc(C(=O)N3CC(F)C3)nc2)C(C)C)oc2ccc(F)cc12 [Compound 64, (S)-1-(1-(5-fluoro-3-methylbenzofuran-2-yl)-2-methylpropyl)-3-(6-(3-fluoroazetidine-1-carbonyl)pyridin-3-yl)urea] | < 100 | 1000 to 5000
10 | Cc1c([C@@H](NC(=O)Nc2cccc(S(C)(=N)=O)c2)C(C)C)oc2ccc(F)cc12 (single isomer, unassigned) [Compound 29] | 100 to 250 | 1000 to 5000
11 | Cc1c([C@@H](NC(=O)N[C@@H]2CCC[C@@H](C(N)=O)C2)C(C)C)oc2ccc(F)cc12 (single isomer, unassigned) [Compound 32] | 100 to 250 | > 5000

More lines, now with the values ahead:

Row | Kd [1] [nM] | IC50 [2] [nM] | Structure (SMILES)
12 | < 100 | < 1000 | Cc1c(C(NC(=O)Nc2cnc(N3CCC3)nc2)C(F)(F)F)oc2ccc(F)cc12 (single isomer, unassigned) [Compound 69, 1-(2-(azetidin-1-yl)pyrimidin-5-yl)-3-(2,2,2-trifluoro-1-(5-fluoro-3-methylbenzofuran-2-yl)ethyl)urea]
13 | < 100 | < 1000 | Cc1c(C(NC(=O)Nc2cnc(N)nc2)C(F)(F)F)oc2ccc(F)cc12 (racemic) [Compound 68, 1-(2-aminopyrimidin-5-yl)-3-(2,2,2-trifluoro-1-(5-fluoro-3-methylbenzofuran-2-yl)ethyl)urea]
14 | < 100 | < 1000 | Cc1c([C@@H](NC(=O)Nc2cncc(C(=O)N3CCC3)c2)C(C)C)oc2ccc(F)cc12 [Compound 63, (S)-1-(5-(azetidine-1-carbonyl)pyridin-3-yl)-3-(1-(5-fluoro-3-methylbenzofuran-2-yl)-2-methylpropyl)urea]
15 | < 100 | 1000 to 5000 | Cc1c([C@@H](NC(=O)Nc2cccc(C(=O)N(C)C)c2)C(C)C)oc2ccc(F)cc12 [Compound 22, (S)-3-(3-(1-(5-fluoro-3-methylbenzofuran-2-yl)-2-methylpropyl)ureido)-N,N-dimethylbenzamide]
16 | < 100 | < 1000 | Cc1c([C@@H](NC(=O)Nc2cccc(C(N)=O)c2)C(C)C)oc2c(F)cc(F)cc12 [Compound 52, (S)-3-(3-(1-(5,7-difluoro-3-methylbenzofuran-2-yl)-2-methylpropyl)ureido)benzamide]
17 | < 100 | < 1000 | Cc1c([C@@H](NC(=O)Nc2cnc(N3CC(F)C3)nc2)C(C)C)oc2ccc(F)cc12 [Compound 73, (S)-1-(1-(5-fluoro-3-methylbenzofuran-2-yl)-2-methylpropyl)-3-(2-(3-fluoroazetidin-1-yl)pyrimidin-5-yl)urea]
18 | < 100 | < 1000 | Cc1c([C@@H](NC(=O)Nc2cncc(C(=O)N(C)C)c2)C(C)C)oc2ccc(F)cc12 [Compound 56, (S)-5-(3-(1-(5-fluoro-3-methylbenzofuran-2-yl)-2-methylpropyl)ureido)-N,N-dimethylnicotinamide]
